Measured values from ChEMBL document CHEMBL4808216, “Gut-Restricted Selective Cyclooxygenase-2 (COX-2) Inhibitors for Chemoprevention of Colorectal Cancer” (J Med Chem, 2021).
pIC50, pKi: −log10 of the molar value. ≈ marks a conversion by molar mass, not a printed value. Calls of active or inactive are those of the source. The rule behind the calls is not given here.

Legend:
[1] = Drug concentration in C57BL/6J mouse colon at 10 mg/kg, po administered as cassette dose measured at 4 hrs by LC/MS/MS analysis; type: ADME, organism-based; details: read-out: Ct
[2] = Oral bioavailability in dog at 10 mg/kg measured up to 24 hrs by LC-MS analysis; type: ADME, organism-based, Canis lupus familiaris; details: in vivo
HEK293 = test: Selectivity ratio of IC50 for COX1 (unknown origin) expressed in HEK293 TRex cells assessed as reduction in PGE2 production to IC50 for COX2 (unknown origin) expressed in HEK293 TRex cells assessed as reduction in PGE2 production; type: cell-based; details: Homo sapiens
[3] = Equilibrium solubility of compound in FASSIF at pH 6.5; type: physicochemical
[4] = biological target: T1, Prostaglandin G/H synthase 1 (Homo sapiens, UniProt P23219); test: Inhibition of COX1 in human whole blood assessed as reduction in calcium ionophore-stimulated TXB2 production incubated for 1 hr by ELISA; type: tissue-based
[5] = biological target: T1, Prostaglandin G/H synthase 1; test: Inhibition of COX1 (unknown origin) expressed in HEK293 TRex cells assessed as reduction in PGE2 production using arachidonic acid as substrate preincubated for 60 mins followed by substrate addition for 1 hr in presence of 10% FBS by RapidFire High-Throughput Mass Spectrometry; type: ADME, cell-based, HEK293-T-REx
[6] = Drug concentration in C57BL/6J mouse colon at 10 mg/kg, po administered as cassette dose measured at 2 hrs by liquid chromatographic triple-quadrupole mass spectrometric method; type: ADME, organism-based; details: read-out: Ct
[7] = Protein binding in human colon assessed as unbound fraction; type: ADME, tissue-based
[8] = biological target: T1, Prostaglandin G/H synthase 1; test: Inhibition of human recombinant COX-1 assessed as reduction in peroxidase activity using arachidonic acid as substrate preincubated for 60 mins followed by substrate addition for 2 secs by ADPH based fluorometric analysis; type: ADME
in vivo = details: C57BL/6J, mouse, colon / portal vein plasma, po, 10 mg/kg
Description: Ratio of drug concentration in C57BL/6J mouse colon to portal vein plasma at 10 mg/kg, po measured after 4 hr by liquid chromatographic triple-quadrupole mass spectrometric method

[9] = Drug metabolism in mouse hepatocytes assessed as metabolic turnover at 10 uM incubated up to 2 hrs by LC/MS-MS analysis; type: ADME, cell-based, Hepatocyte
Homo sapiens = organism: Homo sapiens; test: Selectivity ratio of IC50 for COX1 in human whole blood assessed as reduction in calcium ionophore-stimulated TXB2 production to IC50 for COX2 in human whole blood assessed as reduction in LPS stimulated PGE2 production; type: tissue-based
[10] = Half life in mouse hepatocytes; type: ADME, cell-based, Hepatocyte
Mus musculus [11] = test: Chemo-protective activity in C57BL/6J mouse model of spontaneous GI-tract tumor Apc-min assessed as 18F-FDG uptake in ileum at 300 mg/kg, po incorporated into chow diet administered daily for 2 weeks and measured after 14 days by ex vivo PET imaging analysis relative to control; type: functional
[12] = biological target: T2, Prostaglandin G/H synthase 2 (Homo sapiens, UniProt P35354); test: Inhibition of human recombinant COX-2 using arachidonic acid as substrate preincubated for 60 mins followed by substrate addition for 2 secs by ADPH based fluorometric analysis
T2 sequence (P35354 whole entry): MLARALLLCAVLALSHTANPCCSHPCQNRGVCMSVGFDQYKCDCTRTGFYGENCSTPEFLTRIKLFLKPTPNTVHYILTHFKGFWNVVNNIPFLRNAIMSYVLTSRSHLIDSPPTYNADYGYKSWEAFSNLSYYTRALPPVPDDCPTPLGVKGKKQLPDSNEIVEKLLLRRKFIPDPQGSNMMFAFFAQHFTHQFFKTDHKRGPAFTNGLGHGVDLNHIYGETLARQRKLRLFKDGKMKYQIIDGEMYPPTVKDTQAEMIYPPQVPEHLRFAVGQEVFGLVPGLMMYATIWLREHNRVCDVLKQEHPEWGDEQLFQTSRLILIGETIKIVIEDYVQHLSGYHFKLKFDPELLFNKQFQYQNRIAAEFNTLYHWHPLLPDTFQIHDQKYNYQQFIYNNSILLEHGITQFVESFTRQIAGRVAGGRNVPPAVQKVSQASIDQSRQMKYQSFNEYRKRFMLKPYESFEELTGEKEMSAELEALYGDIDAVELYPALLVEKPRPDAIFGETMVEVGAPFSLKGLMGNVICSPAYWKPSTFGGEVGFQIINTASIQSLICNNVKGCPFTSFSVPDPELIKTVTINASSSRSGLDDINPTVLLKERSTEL

[13] = Oral bioavailability in Cynomolgus monkey at 10 mg/kg measured up to 24 hrs by LC-MS analysis; type: ADME, organism-based, Macaca fascicularis; details: in vivo
[14] = Drug concentration in C57BL/6J mouse portal vein plasma at 10 mg/kg, po administered as cassette dose measured at 4 hrs by LC/MS/MS analysis; type: ADME, organism-based
[15] = Drug metabolism in human hepatocytes assessed as metabolic turnover at 10 uM incubated up to 2 hrs by LC/MS-MS analysis; type: ADME, cell-based, Hepatocyte; details: read-out: Drug metabolism
[16] = Half life in mouse liver microsomes; type: ADME, Microsome
[17] = Oral bioavailability in Sprague Dawley rat at 10 mg/kg measured up to 24 hrs by LC-MS analysis; type: ADME, organism-based; details: in vivo
[18] = biological target: T2, Prostaglandin G/H synthase 2; test: Inhibition of COX2 in human whole blood assessed as reduction in LPS stimulated PGE2 production incubated for 1 hr by ELISA; type: tissue-based
[19] = Tmax in C57BL/6J mouse at 10 mg/kg, po administered as cassette dose measured at 4 hrs by liquid chromatographic triple-quadrupole mass spectrometric method; type: ADME, organism-based; details: in vivo
[20] = Protein binding in human plasma assessed as unbound fraction; type: ADME, cell-free
[21] = Ratio of drug concentration in C57BL/6J mouse colon to plasma at 10 mg/kg, po measured after 4 hr by liquid chromatographic triple-quadrupole mass spectrometric method; type: ADME, organism-based
[22] = Half life in human liver microsomes; type: ADME, Microsome
[23] = Half life in C57BL/6J mouse at 2 mg/kg, iv measured after 0.08 to 24 hrs; type: ADME, organism-based; details: in vivo, 2 mg/kg, time 0.08-24 hrs
[24] = Drug concentration in C57BL/6J mouse plasma at 10 mg/kg, po administered as cassette dose measured at 4 hrs by LC/MS/MS analysis; type: ADME, organism-based
[25] = biological target: T3, Prostaglandin G/H synthase 2 (Homo sapiens) (UniProt P35354)
T3 sequence (whole entry): T2 sequence (P35354 whole entry)
Description: Protein occupancy at human recombinant COX-2 assessed as dissociation half life

[26] = biological target: T2, Prostaglandin G/H synthase 2; test: Inhibition of COX2 (unknown origin) expressed in HEK293 TRex cells assessed as reduction in PGE2 production using arachidonic acid as substrate preincubated for 60 mins followed by substrate addition for 1 hr in presence of 10% FBS by RapidFire High-Throughput Mass Spectrometry; type: cell-based, HEK293-T-REx
[27] = Volume of distribution at steady state in C57BL/6J mouse at 2 mg/kg, iv measured after 0.08 to 24 hrs; type: ADME, organism-based; details: in vivo, 2 mg/kg, time 0.08-24 hrs
[28] = biological target: T2, Prostaglandin G/H synthase 2; test: Inhibition of human recombinant COX-2 assessed as reduction in peroxidase activity using arachidonic acid as substrate preincubated for 60 mins followed by substrate addition for 2 secs by ADPH based fluorometric analysis
[29] = Half life in human hepatocytes; type: ADME, cell-based, Hepatocyte
Mus musculus [30] = test: Antitumor activity in C57BL/6J mouse model of spontaneous GI-tract tumor Apc-min assessed as reduction in total ileum polyp area at 300 mg/kg, po administered as suspension for 10 to 12 weeks; type: functional; details: time 10-12 weeks, read-out: TGI
[31] = Oral bioavailability in C57BL/6J mouse at 10 mg/kg measured up to 24 hrs by LC-MS analysis; type: ADME, organism-based; details: in vivo
Mus musculus [32] = test: Antitumor activity in C57BL/6J mouse model of spontaneous GI-tract tumor Apc-min assessed as change in ileum polyp size at 30 to 300 mg/kg, po administered as suspension for 10 weeks; type: functional; details: dose 30-300 mg/kg
[33] = biological target: T4, Prostaglandin G/H synthase 2 (Mus musculus, UniProt Q05769); test: In vivo inhibition of COX2 in po dosed C57BL/6J mouse model of spontaneous GI-tract tumor Apc-min assessed as chemopreventive effect by measuring reduction in polyp area and relevant plasma exposures; type: functional, organism-based
T4 sequence (Q05769 whole entry): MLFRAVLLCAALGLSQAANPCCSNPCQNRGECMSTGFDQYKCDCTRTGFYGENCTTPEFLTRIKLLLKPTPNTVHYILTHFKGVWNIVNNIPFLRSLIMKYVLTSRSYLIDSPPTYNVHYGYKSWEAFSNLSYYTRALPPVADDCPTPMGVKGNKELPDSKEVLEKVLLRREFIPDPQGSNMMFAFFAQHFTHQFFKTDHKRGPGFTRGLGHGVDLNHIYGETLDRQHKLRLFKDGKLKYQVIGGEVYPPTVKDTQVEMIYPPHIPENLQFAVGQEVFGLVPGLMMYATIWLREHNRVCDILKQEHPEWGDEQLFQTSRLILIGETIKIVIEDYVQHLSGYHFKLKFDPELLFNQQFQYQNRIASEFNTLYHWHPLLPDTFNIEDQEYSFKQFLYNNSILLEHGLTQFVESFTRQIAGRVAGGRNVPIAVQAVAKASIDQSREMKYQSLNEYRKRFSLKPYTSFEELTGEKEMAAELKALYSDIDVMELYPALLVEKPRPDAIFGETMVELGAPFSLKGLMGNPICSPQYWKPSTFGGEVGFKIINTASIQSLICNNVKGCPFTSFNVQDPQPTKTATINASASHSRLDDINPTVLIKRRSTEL

Mus musculus [34] = test: Antitumor activity in C57BL/6J mouse model of spontaneous GI-tract tumor Apc-min assessed as mouse survival at 100 mg/kg, po administered daily as suspension and measured at day 82 by Kaplan-Meier method; type: functional
Mus musculus [35] = test: Antitumor activity in C57BL/6J mouse model of spontaneous GI-tract tumor Apc-min assessed as reduction in total ileum polyp area at 30 to 300 mg/kg, po administered as suspension for 10 weeks; type: functional, organism-based; details: dose 30-300 mg/kg
Mus musculus [36] = test: Antitumor activity in C57BL/6J mouse model of spontaneous GI-tract tumor Apc-min assessed as reduction in total ileum polyp number at 30 to 300 mg/kg, po administered as suspension for 10 weeks; type: functional, organism-based; details: dose 30-300 mg/kg
[37] = biological target: T4, Prostaglandin G/H synthase 2; test: In vivo inhibition of COX2 in po dosed C57BL/6J mouse model of spontaneous GI-tract tumor Apc-min assessed as chemopreventive effect by measuring reduction in polyp area and relevant ileum exposures; type: functional, organism-based

T1 sequence (P23219 whole entry): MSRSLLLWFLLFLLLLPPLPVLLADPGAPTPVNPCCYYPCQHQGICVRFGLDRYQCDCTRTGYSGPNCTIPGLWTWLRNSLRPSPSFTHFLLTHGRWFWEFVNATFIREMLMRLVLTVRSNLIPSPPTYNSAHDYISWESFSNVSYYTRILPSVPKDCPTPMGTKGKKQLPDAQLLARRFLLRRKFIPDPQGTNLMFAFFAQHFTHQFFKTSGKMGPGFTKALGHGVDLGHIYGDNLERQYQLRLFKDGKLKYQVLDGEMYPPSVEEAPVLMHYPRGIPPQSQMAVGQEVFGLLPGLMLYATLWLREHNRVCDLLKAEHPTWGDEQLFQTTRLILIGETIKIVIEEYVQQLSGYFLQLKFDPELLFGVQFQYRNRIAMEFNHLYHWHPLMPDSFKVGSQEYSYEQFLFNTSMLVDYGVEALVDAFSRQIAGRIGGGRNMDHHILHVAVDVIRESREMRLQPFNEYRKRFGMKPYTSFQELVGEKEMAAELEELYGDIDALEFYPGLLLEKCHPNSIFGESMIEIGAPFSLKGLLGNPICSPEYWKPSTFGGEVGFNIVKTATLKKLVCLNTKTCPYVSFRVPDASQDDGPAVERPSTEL

CCCCOc1nc(OCC(C)(C)O)c(-c2ccc(S(C)(=O)=O)cc2)cc1CO
concentration at 4 h [1]: 4350 ng/g
bioavailability [2]: 74%
Ratio IC50 (HEK293): 300
solubility thermodynamic [3]: 66.5 µM (≈ 28.2 µg/mL)
pIC50 [4]: < 3.74
pIC50 [5]: 4.85
concentration at 2 h [6]: 6510 ng/g
fraction unbound [7]: 0.025
pIC50 [8]: < 4.30
Kp at 4 h (in vivo): 29.7
Drug metabolism [9]: 79.6%
Ratio IC50 (Homo sapiens): > 200
t1/2 [10]: 1.9 min
Activity (Mus musculus [11]): 48.9%
pKi [12]: 7.92
bioavailability [13]: 4.87%
concentration at 4 h [14]: 24.8 ng/mL
metabolised at 2 h, 10 µM [15]: 100%
half-life [16]: 2.7 min
bioavailability [17]: 1.5%
pIC50 [18]: 6.46
Tmax [19]: 15 min
fraction unbound [20]: 0.009
Kp at 4 h ([21]; C57BL/6J, colon / plasma): 1620
half-life [22]: 27.8 min
t1/2 [23]: 13.8 min
concentration at 4 h [24]: 3 ng/mL
T1/2 [25]: 1080 min
pIC50 [26]: 7.33
Vdss [27]: 4.92 L/kg
pIC50 [28]: 6.65
half-life [29]: 2.4 min
inhibition in vivo at 300 mg/kg (Mus musculus [30]): 35.1%
bioavailability [31]: 4.25%

CC(C)(O)COc1nc(OCCC(F)(F)F)c(CO)cc1-c1ccc(S(C)(=O)=O)cc1
concentration at 4 h [1]: 15500 ng/g
solubility thermodynamic [3]: 44.4 µM (≈ 20.6 µg/mL)
pIC50 [4]: 3.74
pIC50 [5]: 6.89
fraction unbound [7]: 0.224
pIC50 [8]: < 4.30
Kp at 4 h (in vivo): 101
Activity (Mus musculus [32]): >2 mm
Ratio IC50 (Homo sapiens): > 200
Activity (Mus musculus [11]): 48.6%
pIC50 [33]: 8.89
Survival (Mus musculus [34]): 74 days
pKi [12]: 7.49
concentration at 4 h [14]: 179 ng/mL
pIC50 [18]: 6.06
fraction unbound [20]: 0.01
Ratio ([21]; other tissue, 10 mg/kg, 4 h): 5264
concentration at 4 h [24]: 3.4 ng/mL
T1/2 [25]: 1320 min
pIC50 [26]: 6.89
Activity (Mus musculus [35]): Active
Activity (Mus musculus [36]): Active
pIC50 [37]: 6.13
pIC50 [28]: 6.30
inhibition in vivo at 300 mg/kg (Mus musculus [30]): 48.7%
